Source: patent US20220324835A1 (Nurix Therapeutics, Inc., priority 2018, published 2022)
Read-outs that look alike come from different tables or passages of the source.

Test system: primary human total T-cells
Assay: T-cell activation assessed by cell proliferation (Cell Trace Violet)
Format: cell-based
Source text: Peripheral blood mononuclear cells (PBMC) were obtained either: 1) by using Ficoll-Paque™ (GE Healthcare) for separation of peripheral blood hematopoietic cells from buffy coats of healthy human donors; or 2) directly from FeukoPak donations. Total human primary T-cells were isolated from the PMBCs utilizing negative selection with commercial kits following the manufacturer's protocol (Miltenyi Catalog #130-096-535 (i.e., cocktail of antibodies against surface markers CD14, CD15, CD16, CD19, CD34, CD36, CD56, CD123 and CD235a are incubated with the PBMCs before passing the samples by magnetic beads for removal of cells expressing those surface markers) or StemCells Catalog #17951) to yield >95% CD3+ cells as assessed by flow cytometry. For measurement of cell proliferation, cells were labeled with Cell Trace Violet (Invitrogen) following manufacturer's protocol prior to activation by stimulation with anti-CD3 antibody alone or in combination with anti-CD28 antibody. The Cbl-b inhibitor was added to 1×10^5 cells per well at multiple concentrations (e.g., 10 μM, 1.11 μM, or 0.123 μM) with a final DMSO concentration of <0.1%. The plate was incubated for one hour at 37° C. in 5% CO2. Following incubation with the Cbl-b inhibitor, primary human total T-cells were stimulated with either plate bound anti-CD3 antibody (OKT3) alone or plate bound anti-CD3 antibody (OKT3) with soluble anti-CD28 antibody (28.2) (Life Technologies). To prepare plates with plate bound anti-CD3 antibody (OKT3), 96-well round bottom tissue culture plates were coated with 100 μl of anti-CD3 antibody (OKT3) at 10 μg/mL for 4 hours at 37° C. 5% CO2 in phosphate buffered saline (PBS). The plates were washed with PBS prior to adding the cells with or without soluble anti-CD28 antibody (28.2) to each well at a final concentration of 5 μg/mL. Cells were stimulated for 48 hours prior to harvesting the cell free supernatant and staining the cell population for surface marker assessment by flow cytometry. Supernatants were analyzed for cytokine secretion (e.g., GM-CSF, IFNγ and TNFα) by ELISA (R&D Systems, Peprotech or Life Technologies) or Luminex multiplex kits (Procarta Life Technologies) following manufacturer's protocol. Cells were stained with anti-CD69 (BD Biosciences) to assess levels of surface markers of activation. Proliferation was measured by flow cytometry and data was analyzed with FlowJo v7.6.5 or v10. Readouts were reported as fold change over baseline. In some embodiments, baseline was the measurement obtained from total human T-cells stimulated with anti-CD3 antibody alone, wherein the cells were not incubated with a Cbl-b inhibitor. In some embodiments, baseline was the measurement obtained from total human T-cells stimulated with anti-CD3 antibody and anti-CD28 antibody, where the cells were not incubated with a Cbl-b inhibitor.
Cbl-b inhibitors were tested to determine their ability to induce or enhance secretion of cytokines from T-cells (e.g., GM-CSF, IFNγ and TNFα) and/or surface expression of cell surface markers on T-cells (e.g., CD69) that is indicative of T-cell activation. Cbl-b inhibitors were also tested to determine their ability to induce or enhance T-cell proliferation. Cbl-b inhibitors were tested for their effects on T-cell activation in the presence of costimulation and where conditions were suboptimal for priming.
Readouts for T-cell activation were reported as fold change over baseline. Baseline for this study was the measurement obtained from total human T-cells stimulated with anti-CD3 antibody alone or anti-CD3 antibody in combination with soluble anti-CD28 antibody, where the cells were not incubated with a Cbl-b inhibitor. For T-cells stimulated with anti-CD3/anti-CD28 or with anti-CD3 alone changes greater than 1,2-fold over baseline for % positive CD69 staining and greater than 2-fold over baseline for % total proliferating cells were considered a significant and positive response (Table 4a). […]

[1] = CD3/CD28 stimulation, CD4 T-cells, read-out: % CP (cell proliferation) (CD4)
[2] = CD3/CD28 stimulation, CD8 T-cells, read-out: % CP (cell proliferation) (CD8)
[3] = CD3 alone stimulation, CD8 T-cells, read-out: % CP (cell proliferation) (CD8)

| SMILES | fold induction at 1.11 µM [1] | fold induction at 10 µM [1] | fold induction at 1.11 µM [2] | fold induction at 10 µM [2] | fold induction at 1.11 µM [3] | fold induction at 10 µM [3] |
| --- | --- | --- | --- | --- | --- | --- |
| Cn1cnnc1CC1(c2cccc(N3Cc4c(cc(CN5CC[C@H](C#N)C5)cc4C(F)(F)F)C3=O)c2)COC1 [Compound 422, (S)-1-((2-(3-(3-((4-methyl-4H-1,2,4-triazol-3-yl)methyl)oxetan-3-yl)phenyl)-3-oxo-7-(trifluoromethyl)isoindolin-5-yl)methyl)pyrrolidine-3-carbonitrile] | > 4 | > 4 | 2.01 to 3 | 3.01 to 4 | 3.01 to 4 | > 4 |
| C[C@H](Cc1nncn1C)c1cccc(N2Cc3c(cc(CN4CC[C@H](F)C4)cc3C(F)(F)F)C2=O)c1 [Compound 399, 6-(((S)-3-fluoropyrrolidin-1-yl)methyl)-2-(3-((R)-1-(4-methyl-4H-1,2,4-triazol-3-yl)propan-2-yl)phenyl)-4-(trifluoromethyl)isoindolin-1-one] | > 4 | > 4 | > 4 | > 4 | > 4 | > 4 |
| C[C@H](Cc1nncn1C)c1cccc(NC(=O)c2cc3cc(N4CCNCC4)ccc3cn2)c1 [Compound 472, N-{3-[(2R)-1-(4-methyl-4H-1,2,4-triazol-3-yl)propan-2-yl]phenyl}-6-(piperazin-1-yl)isoquinoline-3-carboxamide] | 3.01 to 4 | > 4 | 2.01 to 3 | 2.01 to 3 | 2.01 to 3 | < 2 |
| Cn1cnnc1CC1(c2cccc(N3Cc4c(cc(CN5CC(F)C5)cc4C(F)(F)F)C3=O)c2)COC1 [Compound 415, 6-((3-fluoroazetidin-1-yl)methyl)-2-(3-(3-((4-methyl-4H-1,2,4-triazol-3-yl)methyl)oxetan-3-yl)phenyl)-4-(trifluoromethyl)isoindolin-1-one] | > 4 | > 4 | 3.01 to 4 | > 4 | > 4 | > 4 |
| Cn1cnnc1CC1(c2cccc(NC(=O)c3nc4c(C(F)(F)F)cccc4[nH]3)c2)COC1 [Compound 335, N-(3-{3-[(4-methyl-1,2,4-triazol-3-yl)methyl]oxetan-3-yl}phenyl)-4-(trifluoromethyl)-1H-1,3-benzodiazole-2-carboxamide] | > 4 | > 4 | 3.01 to 4 | 3.01 to 4 | > 4 | > 4 |
| C[C@@H](c1cc2c(c(C(F)(F)F)c1)CN(c1cccc(C3(Cc4nncn4C)COC3)c1)C2=O)N1CC[C@H](F)C1 [Compound 412, 6-((S)-1-((S)-3-fluoropyrrolidin-1-yl)ethyl)-2-(3-(3-((4-methyl-4H-1,2,4-triazol-3-yl)methyl)oxetan-3-yl)phenyl)-4-(trifluoromethyl)isoindolin-1-one] | > 4 | > 4 | > 4 | > 4 | > 4 | > 4 |
| Cc1cc(C(=O)Nc2cccc([C@@H](C)Cc3nncn3C)c2)nc(C2CC2)n1 [Compound 325, (S)-2-Cyclopropyl-6-methyl-N-(3-(1-(4-methyl-4H-1,2,4-triazol-3-yl)propan-2-yl)phenyl)pyrimidine-4-carboxamide] | > 4 | > 4 | 2.01 to 3 | > 4 | 2.01 to 3 | > 4 |
| C[C@H](Cc1nncn1C)c1cccc(NC(=O)c2cccc(C(F)(F)F)n2)c1 [Compound 183a, (R)-N-(3-(1-(4-methyl-4H-1,2,4-triazol-3-yl)propan-2-yl)phenyl)-6-(trifluoromethyl)picolinamide] | 3.01 to 4 | > 4 | 2.01 to 3 | > 4 | 3.01 to 4 | > 4 |
| C[C@H](Cc1nncn1C)c1cccc(NC(=O)c2n[nH]c3c2CCC3)c1 [Compound 313, (R)-N-(3-(1-(4-Methyl-4H-1,2,4-triazol-3-yl)propan-2-yl)phenyl)-1,4,5,6-tetrahydrocyclopenta[c]pyrazole-3-carboxamide] | > 4 | > 4 | 3.01 to 4 | 2.01 to 3 | > 4 | 2.01 to 3 |
| Cn1cnnc1C(F)(F)[C@](C)(F)c1cccc(N2Cc3c(cc(CN4CC[C@@H](C#N)C4)cc3C(F)(F)F)C2=O)c1 [Compound 455, (R)-1-((3-oxo-2-(3-((R)-1,1,2-trifluoro-1-(4-methyl-4H-1,2,4-triazol-3-yl)propan-2-yl)phenyl)-7-(trifluoromethyl)isoindolin-5-yl)methyl)pyrrolidine-3-carbonitrile] | > 4 | > 4 | 3.01 to 4 | > 4 | > 4 | > 4 |
| Cn1cnnc1CC1(c2cccc(N3Cc4c(cc(CN5CCC6(CC6)C5)cc4C(F)(F)F)C3=O)c2)COC1 [Compound 520, 6-((5-azaspiro[2.4]heptan-5-yl)methyl)-2-(3-(3-((4-methyl-4H-1,2,4-triazol-3-yl)methyl)oxetan-3-yl)phenyl)-4-(trifluoromethyl)isoindolin-1-one] | > 4 | > 4 | > 4 | > 4 | > 4 | > 4 |
| C[C@H](Cc1nncn1C)c1cccc(N2Cc3c(cc(CN4CC(C)(O)C4)cc3C(F)(F)F)C2=O)c1 [Compound 397] | > 4 | > 4 | 3.01 to 4 | > 4 | > 4 | > 4 |
| Cn1cnnc1C(F)(F)[C@](C)(F)c1cccc(N2Cc3c(cc(C(=O)N4CC[C@H](O)C4)cc3C(F)(F)F)C2=O)c1 [Compound 438, 6-((S)-3-hydroxypyrrolidine-1-carbonyl)-2-(3-((R)-1,1,2-trifluoro-1-(4-methyl-4H-1,2,4-triazol-3-yl)propan-2-yl)phenyl)-4-(trifluoromethyl)isoindolin-1-one] | 3.01 to 4 | > 4 | < 2 | 3.01 to 4 | < 2 | > 4 |
| C[C@H](Cc1nncn1C)c1cccc(N2Cc3c(cc(CN4CC(O)C4)cc3C(F)(F)F)C2=O)c1 [Compound 393, (R)-6-((3-hydroxyazetidin-1-yl)methyl)-2-(3-(1-(4-methyl-4H-1,2,4-triazol-3-yl)propan-2-yl)phenyl)-4-(trifluoromethyl)isoindolin-1-one] | < 2 | 3.01 to 4 | < 2 | 2.01 to 3 | < 2 | < 2 |
